From ChEMBL document CHEMBL4507276 (2021)

Legend:
[1] = biological target: Activin receptor type-2B (Homo sapiens) (UniProt Q13705); details: Compound concentration 1000.0 nM
[2] = biological target: Calcium/calmodulin-dependent protein kinase type 1G (Homo sapiens) (UniProt Q96NX5); details: Compound concentration 1000.0 nM
[3] = biological target: T1, Ephrin type-B receptor 3 (Homo sapiens) (UniProt P54753); details: Compound concentration 1000.0 nM
T1 sequence (whole entry): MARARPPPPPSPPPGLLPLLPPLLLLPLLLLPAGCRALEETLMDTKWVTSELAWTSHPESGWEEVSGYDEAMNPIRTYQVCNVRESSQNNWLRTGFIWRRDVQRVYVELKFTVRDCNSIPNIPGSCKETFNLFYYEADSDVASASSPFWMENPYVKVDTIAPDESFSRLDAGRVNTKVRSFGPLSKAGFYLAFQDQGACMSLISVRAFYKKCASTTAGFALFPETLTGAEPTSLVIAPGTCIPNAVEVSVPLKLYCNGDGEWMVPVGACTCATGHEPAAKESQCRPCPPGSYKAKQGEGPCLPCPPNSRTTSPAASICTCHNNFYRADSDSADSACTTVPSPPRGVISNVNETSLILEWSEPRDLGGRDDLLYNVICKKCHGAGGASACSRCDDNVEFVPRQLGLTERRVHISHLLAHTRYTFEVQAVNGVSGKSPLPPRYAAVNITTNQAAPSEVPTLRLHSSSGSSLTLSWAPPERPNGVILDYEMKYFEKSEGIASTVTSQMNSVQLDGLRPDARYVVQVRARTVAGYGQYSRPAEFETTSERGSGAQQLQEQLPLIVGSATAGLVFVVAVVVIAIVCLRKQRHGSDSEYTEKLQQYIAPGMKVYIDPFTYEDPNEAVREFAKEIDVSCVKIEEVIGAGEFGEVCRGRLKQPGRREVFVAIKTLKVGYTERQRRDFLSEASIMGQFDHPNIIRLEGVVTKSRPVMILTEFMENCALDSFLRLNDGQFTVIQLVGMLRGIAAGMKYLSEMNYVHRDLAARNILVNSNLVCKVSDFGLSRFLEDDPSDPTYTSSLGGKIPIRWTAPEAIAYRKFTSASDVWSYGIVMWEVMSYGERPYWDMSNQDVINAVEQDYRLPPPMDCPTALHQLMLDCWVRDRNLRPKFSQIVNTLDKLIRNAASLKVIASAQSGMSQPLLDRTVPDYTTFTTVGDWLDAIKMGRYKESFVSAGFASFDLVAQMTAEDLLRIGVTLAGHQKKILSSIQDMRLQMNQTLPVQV

[4] = biological target: Mitogen-activated protein kinase kinase kinase kinase 5 (Homo sapiens) (UniProt Q9Y4K4); details: Compound concentration 1000.0 nM
Mitogen-activated protein kinase kinase kinase kinase 5 (Homo sapiens), sequence (Q9Y4K4 whole entry, looked up): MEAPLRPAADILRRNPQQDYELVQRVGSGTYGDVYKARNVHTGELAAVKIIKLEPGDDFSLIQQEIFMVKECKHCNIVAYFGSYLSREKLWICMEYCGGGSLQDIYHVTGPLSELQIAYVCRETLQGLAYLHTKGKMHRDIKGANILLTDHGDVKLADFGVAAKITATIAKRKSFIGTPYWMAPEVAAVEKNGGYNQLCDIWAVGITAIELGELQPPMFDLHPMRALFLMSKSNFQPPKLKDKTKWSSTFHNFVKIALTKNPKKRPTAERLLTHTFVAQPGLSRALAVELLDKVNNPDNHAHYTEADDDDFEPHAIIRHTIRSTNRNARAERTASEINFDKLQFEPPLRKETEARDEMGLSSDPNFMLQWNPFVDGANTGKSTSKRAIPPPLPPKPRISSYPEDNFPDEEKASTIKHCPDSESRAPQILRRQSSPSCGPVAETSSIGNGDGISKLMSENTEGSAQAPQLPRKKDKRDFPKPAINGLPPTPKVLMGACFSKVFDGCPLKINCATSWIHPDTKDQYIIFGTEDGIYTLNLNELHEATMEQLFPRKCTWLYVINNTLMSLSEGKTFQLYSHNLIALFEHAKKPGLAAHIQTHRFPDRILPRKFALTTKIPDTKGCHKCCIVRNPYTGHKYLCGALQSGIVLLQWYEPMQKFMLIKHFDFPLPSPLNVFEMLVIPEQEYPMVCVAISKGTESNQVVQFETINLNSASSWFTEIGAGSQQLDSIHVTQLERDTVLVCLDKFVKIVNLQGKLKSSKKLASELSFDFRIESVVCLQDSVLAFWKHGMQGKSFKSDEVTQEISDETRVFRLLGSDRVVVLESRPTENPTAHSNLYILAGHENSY

[5] = biological target: T2, Dual specificity mitogen-activated protein kinase kinase 3 (Homo sapiens) (UniProt P46734); details: Compound concentration 1000.0 nM
T2 sequence (whole entry): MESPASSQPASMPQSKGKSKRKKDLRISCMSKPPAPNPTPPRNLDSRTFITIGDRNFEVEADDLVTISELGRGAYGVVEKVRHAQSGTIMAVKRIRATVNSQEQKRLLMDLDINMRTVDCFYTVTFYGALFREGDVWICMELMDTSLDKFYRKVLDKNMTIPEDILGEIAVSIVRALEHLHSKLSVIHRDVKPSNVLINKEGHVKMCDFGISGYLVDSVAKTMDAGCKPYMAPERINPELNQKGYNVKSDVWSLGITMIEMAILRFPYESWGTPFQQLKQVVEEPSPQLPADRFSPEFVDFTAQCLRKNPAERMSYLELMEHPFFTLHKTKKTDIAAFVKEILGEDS

[6] = biological target: Serine/threonine-protein kinase 24 (Homo sapiens) (UniProt Q9Y6E0); details: Compound concentration 1000.0 nM
[7] = biological target: Serine/threonine-protein kinase Nek11 (Homo sapiens) (UniProt Q8NG66); details: Compound concentration 1000.0 nM
[8] = biological target: Cyclin-dependent kinase 2 homolog (Plasmodium falciparum (isolate 3D7)) (UniProt P61075); details: Compound concentration 1000.0 nM
[9] = biological target: Phosphatidylinositol 4-phosphate 3-kinase C2 domain-containing subunit beta (Homo sapiens) (UniProt O00750); details: Compound concentration 1000.0 nM
[10] = biological target: Serine/threonine-protein kinase PLK4 (Homo sapiens) (UniProt O00444); details: Compound concentration 1000.0 nM
[11] = biological target: Serine/threonine-protein kinase PRP4 homolog (Homo sapiens) (UniProt Q13523); details: Compound concentration 1000.0 nM
[12] = biological target: Ribosomal protein S6 kinase alpha-3 (Homo sapiens) (UniProt P51812); details: Compound concentration 1000.0 nM
Ribosomal protein S6 kinase alpha-3 (Homo sapiens), sequence (P51812 whole entry): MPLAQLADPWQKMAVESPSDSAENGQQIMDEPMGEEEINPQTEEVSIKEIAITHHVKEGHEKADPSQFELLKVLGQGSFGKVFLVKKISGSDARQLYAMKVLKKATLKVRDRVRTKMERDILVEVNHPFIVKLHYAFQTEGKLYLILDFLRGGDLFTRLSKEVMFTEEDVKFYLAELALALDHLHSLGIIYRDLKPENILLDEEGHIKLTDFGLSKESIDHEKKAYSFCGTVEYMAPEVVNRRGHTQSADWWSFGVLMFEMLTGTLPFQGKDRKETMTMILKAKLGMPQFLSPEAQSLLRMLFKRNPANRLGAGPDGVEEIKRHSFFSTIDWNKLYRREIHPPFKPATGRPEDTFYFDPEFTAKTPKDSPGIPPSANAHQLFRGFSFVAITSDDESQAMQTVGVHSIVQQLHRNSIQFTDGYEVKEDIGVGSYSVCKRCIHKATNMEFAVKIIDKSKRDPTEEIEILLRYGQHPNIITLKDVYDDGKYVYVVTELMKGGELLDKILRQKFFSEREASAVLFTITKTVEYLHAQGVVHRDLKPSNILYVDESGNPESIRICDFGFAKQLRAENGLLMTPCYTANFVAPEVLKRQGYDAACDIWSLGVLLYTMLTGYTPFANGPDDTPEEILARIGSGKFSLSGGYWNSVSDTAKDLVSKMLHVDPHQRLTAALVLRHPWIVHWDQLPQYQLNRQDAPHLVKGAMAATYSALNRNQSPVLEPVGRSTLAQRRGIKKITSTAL

[13] = biological target: SRSF protein kinase 2 (Homo sapiens) (UniProt P78362); details: Compound concentration 1000.0 nM
SRSF protein kinase 2 (Homo sapiens), sequence (P78362 whole entry, looked up): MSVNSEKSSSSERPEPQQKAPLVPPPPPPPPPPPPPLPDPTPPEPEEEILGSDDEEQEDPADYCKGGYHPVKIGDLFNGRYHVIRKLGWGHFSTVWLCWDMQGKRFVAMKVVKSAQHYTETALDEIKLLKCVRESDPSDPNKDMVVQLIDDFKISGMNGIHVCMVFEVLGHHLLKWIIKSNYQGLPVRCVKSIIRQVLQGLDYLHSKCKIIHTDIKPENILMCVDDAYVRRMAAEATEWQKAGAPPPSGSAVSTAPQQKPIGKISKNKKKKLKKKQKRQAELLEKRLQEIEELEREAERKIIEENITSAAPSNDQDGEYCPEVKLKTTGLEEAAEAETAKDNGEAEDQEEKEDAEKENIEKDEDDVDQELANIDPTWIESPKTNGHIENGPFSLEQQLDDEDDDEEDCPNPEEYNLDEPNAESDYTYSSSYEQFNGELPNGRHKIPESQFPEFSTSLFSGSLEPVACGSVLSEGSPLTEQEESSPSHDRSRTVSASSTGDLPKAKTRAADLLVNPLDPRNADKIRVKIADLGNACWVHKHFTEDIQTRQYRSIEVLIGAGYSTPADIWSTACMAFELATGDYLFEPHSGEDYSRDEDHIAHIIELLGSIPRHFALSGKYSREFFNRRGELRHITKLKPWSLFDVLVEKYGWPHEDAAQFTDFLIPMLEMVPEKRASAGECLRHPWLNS

[14] = biological target: SRSF protein kinase 3 (Homo sapiens) (UniProt Q9UPE1); details: Compound concentration 1000.0 nM
SRSF protein kinase 3 (Homo sapiens), sequence (Q9UPE1 whole entry): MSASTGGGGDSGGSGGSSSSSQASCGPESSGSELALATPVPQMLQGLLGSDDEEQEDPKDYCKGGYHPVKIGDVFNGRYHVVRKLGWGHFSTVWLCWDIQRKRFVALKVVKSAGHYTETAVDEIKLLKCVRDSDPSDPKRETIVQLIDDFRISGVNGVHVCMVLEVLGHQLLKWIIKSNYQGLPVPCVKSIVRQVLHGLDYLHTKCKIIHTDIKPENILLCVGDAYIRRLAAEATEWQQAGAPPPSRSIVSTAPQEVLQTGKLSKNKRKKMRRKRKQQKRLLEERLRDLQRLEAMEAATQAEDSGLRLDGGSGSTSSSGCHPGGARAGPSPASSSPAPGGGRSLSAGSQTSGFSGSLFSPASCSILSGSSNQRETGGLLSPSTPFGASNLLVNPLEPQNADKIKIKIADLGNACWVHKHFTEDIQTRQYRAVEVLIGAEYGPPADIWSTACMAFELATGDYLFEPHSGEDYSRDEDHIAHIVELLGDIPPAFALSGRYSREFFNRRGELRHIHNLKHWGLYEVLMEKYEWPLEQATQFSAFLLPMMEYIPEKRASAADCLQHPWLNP

[15] = biological target: Serine/threonine-protein kinase 33 (Homo sapiens) (UniProt Q9BYT3); details: Compound concentration 1000.0 nM
Serine/threonine-protein kinase 33 (Homo sapiens), sequence (Q9BYT3 whole entry, looked up): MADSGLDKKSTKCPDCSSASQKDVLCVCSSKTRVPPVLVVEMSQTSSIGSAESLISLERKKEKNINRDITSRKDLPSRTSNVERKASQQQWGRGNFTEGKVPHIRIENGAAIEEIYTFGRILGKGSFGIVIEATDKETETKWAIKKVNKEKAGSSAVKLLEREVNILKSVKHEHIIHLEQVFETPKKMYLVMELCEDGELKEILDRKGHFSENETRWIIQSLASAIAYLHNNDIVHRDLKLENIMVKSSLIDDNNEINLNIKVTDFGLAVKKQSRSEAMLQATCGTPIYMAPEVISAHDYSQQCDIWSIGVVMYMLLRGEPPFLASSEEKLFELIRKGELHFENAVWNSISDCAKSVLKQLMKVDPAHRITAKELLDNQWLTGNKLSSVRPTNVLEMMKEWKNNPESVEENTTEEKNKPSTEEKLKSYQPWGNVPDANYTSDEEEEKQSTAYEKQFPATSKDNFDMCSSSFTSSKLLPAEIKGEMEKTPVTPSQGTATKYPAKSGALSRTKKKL

[16] = biological target: Tyrosine-protein kinase receptor Tie-1 (Homo sapiens) (UniProt P35590); details: Compound concentration 1000.0 nM
Tyrosine-protein kinase receptor Tie-1 (Homo sapiens), sequence (P35590 whole entry): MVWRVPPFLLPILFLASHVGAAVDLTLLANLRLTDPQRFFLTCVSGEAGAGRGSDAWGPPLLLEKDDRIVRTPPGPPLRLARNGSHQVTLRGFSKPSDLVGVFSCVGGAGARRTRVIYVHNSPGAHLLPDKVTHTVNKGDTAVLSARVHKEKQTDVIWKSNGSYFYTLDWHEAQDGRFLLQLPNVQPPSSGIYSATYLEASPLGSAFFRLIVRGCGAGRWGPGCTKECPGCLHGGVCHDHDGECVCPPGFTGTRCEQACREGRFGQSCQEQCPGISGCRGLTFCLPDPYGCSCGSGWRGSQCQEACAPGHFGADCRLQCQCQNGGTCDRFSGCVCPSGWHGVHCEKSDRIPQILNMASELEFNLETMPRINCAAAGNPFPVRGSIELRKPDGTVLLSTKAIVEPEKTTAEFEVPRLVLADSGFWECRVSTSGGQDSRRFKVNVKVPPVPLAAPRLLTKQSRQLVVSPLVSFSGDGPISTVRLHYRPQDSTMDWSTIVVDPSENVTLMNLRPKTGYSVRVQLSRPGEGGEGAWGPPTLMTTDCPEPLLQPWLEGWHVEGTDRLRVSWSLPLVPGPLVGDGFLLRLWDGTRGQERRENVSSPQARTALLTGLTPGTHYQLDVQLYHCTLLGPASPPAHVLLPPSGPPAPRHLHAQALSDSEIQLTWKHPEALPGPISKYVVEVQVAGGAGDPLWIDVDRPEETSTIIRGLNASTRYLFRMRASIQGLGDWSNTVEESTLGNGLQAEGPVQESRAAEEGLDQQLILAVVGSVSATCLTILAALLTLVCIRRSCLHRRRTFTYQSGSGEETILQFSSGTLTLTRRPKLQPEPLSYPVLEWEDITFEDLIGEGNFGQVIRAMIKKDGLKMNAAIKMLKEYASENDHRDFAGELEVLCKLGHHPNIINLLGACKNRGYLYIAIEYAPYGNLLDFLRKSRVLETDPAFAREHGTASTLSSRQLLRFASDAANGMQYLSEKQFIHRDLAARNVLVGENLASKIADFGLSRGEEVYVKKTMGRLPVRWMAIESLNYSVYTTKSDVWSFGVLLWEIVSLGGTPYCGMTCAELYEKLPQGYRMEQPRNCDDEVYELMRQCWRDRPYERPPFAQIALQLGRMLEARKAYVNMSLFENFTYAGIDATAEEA

[17] = biological target: Beta-2 adrenergic receptor (Homo sapiens) (UniProt P07550); details: Compound concentration 10.0 uM
Beta-2 adrenergic receptor (Homo sapiens), sequence (P07550 whole entry, looked up): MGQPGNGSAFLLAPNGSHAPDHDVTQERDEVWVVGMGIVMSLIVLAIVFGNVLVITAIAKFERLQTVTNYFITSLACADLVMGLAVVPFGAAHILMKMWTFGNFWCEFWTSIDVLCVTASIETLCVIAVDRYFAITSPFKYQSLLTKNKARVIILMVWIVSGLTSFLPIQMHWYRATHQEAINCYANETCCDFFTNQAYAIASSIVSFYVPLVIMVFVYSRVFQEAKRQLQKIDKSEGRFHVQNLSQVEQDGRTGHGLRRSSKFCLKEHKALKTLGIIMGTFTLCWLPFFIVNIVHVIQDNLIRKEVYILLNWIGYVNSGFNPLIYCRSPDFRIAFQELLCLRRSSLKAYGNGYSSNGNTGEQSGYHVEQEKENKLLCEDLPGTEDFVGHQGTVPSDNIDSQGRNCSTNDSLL

[18] = biological target: GABA-A receptor; anion channel (Rattus norvegicus) (UniProt O09028+P15431+P18506+P18508+P19969+P20236+P23574+P23576+P28471+P28473+P30191+P62813+P63079+P63138+Q91ZM7+Q9ES14); details: Compound concentration 10.0 uM

Row | SMILES | residual activity [1] | residual activity [2] | residual activity [3] | residual activity [4] | residual activity [5] | residual activity [6] | residual activity [7] | residual activity [8] | residual activity [9] | residual activity [10] | residual activity [11] | residual activity [12] | residual activity [13] | residual activity [14] | residual activity [15] | residual activity [16] | inhibition [17] | inhibition [18]
1 | CN(C)C(=O)Cn1cc(-c2nc(C3(c4ccc(-c5cnc(N)nc5)cc4)CC3)no2)cn1 [BI 0153] | 96% | 100% | 95% | 89% | 71% | 100% | 90% | 100% | 100% | 100% | 87% | 92% | 91% | 100% | 99% | 98% | 3.55% | 19.4%
2 | CN(C)C(=O)Cn1cc(-c2nc([C@@](C)(c3ccc(-c4cnc(N)nc4)cc3)C3CC3)no2)cn1 [BI 665915] | 81% | 100% | 100% | 86% | 83% | 100% | 100% | 0% | 96% | 74% | 86% | 83% | 100% | 85% | 100% | 90% | 0.497% | 25.5%
